The subject of one series is dogs. The conditions noted are these: cited from earlier work.
The next series relates to PTSD. Particulars: Navy study, ultrasound guidance, not xray guidance; cited from earlier work.
Another series has as its system patient having PTSD. Particulars: patient treated with CB without and with clonidine.
A further series has as its system peripheral nerve blocks. The conditions noted are these: cited from earlier work.
For series [1] the following is noted: cited from earlier work.
Setting [2] is: group 1: left SGB, 0.5% mepivacaine 1 ml.

Read-outs that look alike come from different tables or passages of the source.

Text for patient having PTSD: The procedure involved a local anesthetic mixed with clonidine delivered by a shot in the patient's neck in a procedure that is similar to an epidural given to women in labor.

Turning to `Cc1cccc(C)c1NC(=O)C1CCCCN1C` (centres unmarked) [mepivacaine], in the series with dogs (group 1: 0.5% mepivacaine 1 ml), the “left brachial artery blood flow (BABF) after left SGB” value was “increased significantly” and the “right BABF after left SGB” value was “decreased significantly”. Also, in the series with dogs (setting [2]), the “heart rate (HR)” value was “no significant change” and the “mean arterial pressure (MAP)” value is “no significant change”.

On to `CCCN1CCCC[C@H]1C(=O)Nc1c(C)cccc1C` [Ropivacaine, ropivacaine], for which, in the series on PTSD, the RCSGI versus placebo result is reported as “no difference”.

As for `Clc1cccc(Cl)c1N=C1NCCN1` [clonidine], the “patient-reported result with clonidine over the local anesthetic alone” value with patient having PTSD is “significantly more effective result”. Also, in the series on peripheral nerve blocks (adjunct to intermediate-acting local anesthetics for some peripheral nerve blocks), the “duration of analgesia and anesthesia” value is listed as “improves”. The side-effects entry in the series on peripheral nerve blocks (doses up to 150 µg) is “limited”.

For `CCCCN1CCCCC1C(=O)Nc1c(C)cccc1C` (centres unmarked) [bupivacaine], the solubility entry is recorded as “freely soluble” in series [1] (95 percent ethanol), “slightly soluble” in series [1] (chloroform or acetone) and “soluble” in series [1] (water).

Values taken from patent publication US9603843B2, “Kits and methods for treating post traumatic stress disorder (PTSD) and hot flashes” (CAD MEDICAL SOLUTIONS, LLC, priority 2013, dated 2017).
